From patent US6159940A, “Method for modulating hemopoiesis” (Immunotech Developments Inc., priority 1999, dated 2000)

Legend:
[1] = tested on: CFU-S; assay: Endogenous spleen colonies in irradiated mice (6 Gy); format: in vivo; details: 10 μg/kg IM, Day 9
Protocol: Test mice were irradiated in the dose of 6 Gy Beginning from the first hour after the irradiation, the mice received once daily IM injections of 10 μg/kg H-Ile-Glu-Trp-OH. Injections were made 1, 2, 3, or 4 times. The mice were killed on Day 9, spleens were taken out and fixed in Buene's solution, the colonies were counted. 110 mice were used in the test.

[2] = Local irritating effect, rabbits; format: in vivo
Source text: The local irritating effect of H-Ile-Glu-Trp-OH was studied in 20 guinea pigs and 5 rabbits.

[3] = Solubility; format: physicochemical
Source text: The peptide prepared using this process is a yellowish grey or white powder, soluble in water, substantially insoluble in alcohol and substantially insoluble in chloroform. It has a UV spectrum in the range of 250-300 nm with a maximum at 280±2 nm.

[4] = tested on: hemopoietic progenitor cells; assay: Exogenous spleen colonies from irradiated bone marrow cells; format: in vivo, mice; details: day 9
Protocol: For this purpose, known methods using exogenous spleen colonies were applied. […] Different doses of the peptide were injected intravenously (i.v.), intraperitoneally (i.p.), or intramuscularly (i.m.) to lethally irradiated recipients an hour after the injections of irradiated bone marrow. Colonies were counted on day 9. 350 mice were used as test animals. The data for each group are the average of three tests.

[5] = Clinical study: tolerance, biochemical indices, humoral status; format: in vivo, patients
Source text: The clinical study of H-Ile-Glu-Trp-OH was continued in groups of patients with pronounced secondary pathological changes in their immune system. The primary task of the first stage of the investigation was to observe the preparation tolerance, to reveal toxic, allergic and other reactions, hemogram dynamics and biochemical indices. Further investigation, along with further monitoring of the major clinical and laboratory parameters, included evaluation of the immunological status of a patient before and after the immunopeptide treatment.
Before instituting the treatment, examination was carried out including case history, clinical, laboratory and instrumental investigations. Necessary morphological investigations were performed to verify the diagnosis. There were also the results of hemogram dynamics before and after each treatment course of H-Ile-Glu-Trp-OH. After these courses the biochemical indices and urine tests were examined again. X-ray, ultrasonic and morphological examinations were repeated on indication.
Humoral immunity was also investigated: the content of different types of immunoglobulins, protein fractions, antibodies to thyroid, and the Coombs test (the latter was performed in the case of haemolytic anaemia).
One ml daily, intranasally, once or twice in divided doses, for 5 days. The course was repeated after a 3-week interval. To those patients who received a cytostatic mono- or polychemotherapy, H-Ile-Glu-Trp-OH was administered from the first day of the break in the cytostatic treatment.

[6] = tested on: nucleated blood cells; assay: Karyocyte and lymphocyte counts in blood of irradiated mice (4 Gy), scheme 2; format: in vivo
Protocol: Irradiated mice (4 Gy) received intramuscular injections of the peptide in the dose of 10 μg/kg according to 2 schemes.
b) According to scheme 2, the peptide injections were made starting from the 3rd day after the irradiation, at the same time of maximum depletion of the pool of mature nucleated cells and the bone marrow. The groups of mice were formed in the same way as in the previous scheme. […] Tables 9 and 10 present the data on karyocyte and lymphocyte counts in blood (per 1 mm^3) of mice treated according to scheme 2.

In the case of H-Ile-Glu-Trp-OH, the “Colony (endogenous spleen colonies)” value ([1]; 1 times) is reported as 3.3 ± 0.6, the “Colony (endogenous spleen colonies)” value ([1]; 2 times) is reported as 4.4 ± 0.5 and the “Colony (endogenous spleen colonies)” value ([1]; 3 times) is reported as 5.0 ± 0.7. The “Colony (endogenous spleen colonies)” value ([1]; 4 times) was 5.2 ± 0.8, the local irritating effect [2] was “no local irritating effect” and the Solubility ([3]; alcohol) was “moderately soluble”. For the same substance, the Solubility ([3]; chloroform) was “insoluble”, the Solubility ([3]; water) was “readily soluble” and the “Colony Count” value ([4]; bone marrow 1 Gy, 2.5 mcg/Kg i.v.) was 6.0 ± 0.7. For the same substance, the “Colony Count” value ([4]; bone marrow 1 Gy, 10 mcg/Kg i.m.) was 10.6 ± 0.8, the “Colony Count” value ([4]; bone marrow 1 Gy, 10 mcg/Kg i.p.) was 8.2 ± 0.7 and the “Colony Count” value ([4]; bone marrow 1 Gy, 10 mcg/Kg i.v.) was 8.7 ± 0.4. For the same substance, the “Colony Count” value ([4]; bone marrow 1 Gy, 25 mcg/Kg i.v.) was 7.6 ± 0.4, the “Colony Count” value ([4]; bone marrow 1 Gy, 50 mcg/Kg i.v.) was 7.1 ± 0.5 and the “Colony Count” value ([4]; bone marrow 1 Gy, 100 mcg/Kg i.v.) was 6.0 ± 0.5. For the same substance, the “Colony Count” value ([4]; bone marrow 1 Gy, 200 mcg/Kg i.v.) was 5.3 ± 0.7, the “Colony Count” value ([4]; bone marrow 1 Gy, 500 mcg/Kg i.v.) was 4.2 ± 0.3 and the “Colony Count” value ([4]; bone marrow 3 Gy, 10 mcg/Kg i.v.) was 2.3 ± 0.3. The “protein fractions and immunoglobulins in patients' sera” value ([5]; 1-1.5 months after the treatment) was “No dynamics of these indices was found”, the “dynamics of biochemical indices” value ([5]; before and after 1-3 treatment courses) was “revealed no changes” and the “AP dynamics and ECG” value ([5]; human, in vivo) was “failed to reveal any changes”. The adverse reactions ([5]; prolonged administration (5-6 courses), intranasally) was “no toxic reactions”, the “Karyocyte Count in Blood” value ([6]; scheme 2, 1 Time, Day 7) was 1.64 ± 0.2 × 10^3 and the “Lymphocyte in Blood (Absolute)” value ([6]; scheme 2, 1 Time, Day 7) was 232. For the same substance, the “Lymphocyte in Blood, %” value ([6]; scheme 2, 1 Time, Day 7) was 45.1 ± 3.9%, the “Karyocyte Count in Blood” value ([6]; scheme 2, 1 Time, Day 11) was 1.88 ± 0.3 × 10^3 and the “Lymphocyte in Blood (Absolute)” value ([6]; scheme 2, 1 Time, Day 11) was 1365. For the same substance, the “Lymphocyte in Blood, %” value ([6]; scheme 2, 1 Time, Day 11) was 49.2 ± 3.8%, the “Karyocyte Count in Blood” value ([6]; scheme 2, 1 Time, Day 14) was 1.50 ± 0.2 × 10^3 and the “Lymphocyte in Blood (Absolute)” value ([6]; scheme 2, 1 Time, Day 14) was 1118. The “Lymphocyte in Blood, %” value ([6]; scheme 2, 1 Time, Day 14) was 43.3 ± 3.2%, the “Karyocyte Count in Blood” value ([6]; scheme 2, 1 Time, Day 18) was 2.62 ± 0.2 × 10^3 and the “Lymphocyte in Blood (Absolute)” value ([6]; scheme 2, 1 Time, Day 18) was 2412. For the same substance, the “Lymphocyte in Blood, %” value ([6]; scheme 2, 1 Time, Day 18) was 30.6 ± 2.9%, the “Karyocyte Count in Blood” value ([6]; scheme 2, 1 Time, Day 21) was 1.63 ± 0.2 × 10^3 and the “Lymphocyte in Blood (Absolute)” value ([6]; scheme 2, 1 Time, Day 21) was 743. For the same substance, the “Lymphocyte in Blood, %” value ([6]; scheme 2, 1 Time, Day 21) was 45.6 ± 3.9%, the “Karyocyte Count in Blood” value ([6]; scheme 2, 2 Times, Day 7) was 1.33 ± 0.2 × 10^3 and the “Lymphocyte in Blood (Absolute)” value ([6]; scheme 2, 2 Times, Day 7) was 701. For the same substance, the “Lymphocyte in Blood, %” value ([6]; scheme 2, 2 Times, Day 7) was 52.7 ± 2.9%, the “Karyocyte Count in Blood” value ([6]; scheme 2, 2 Times, Day 11) was 2.03 ± 0.3 × 10^3 and the “Lymphocyte in Blood (Absolute)” value ([6]; scheme 2, 2 Times, Day 11) was 915. The “Lymphocyte in Blood, %” value ([6]; scheme 2, 2 Times, Day 11) was 45.1 ± 5.4%, the “Karyocyte Count in Blood” value ([6]; scheme 2, 2 Times, Day 14) was 1.60 ± 0.2 × 10^3 and the “Lymphocyte in Blood (Absolute)” value ([6]; scheme 2, 2 Times, Day 14) was 619. For the same substance, the “Lymphocyte in Blood, %” value ([6]; scheme 2, 2 Times, Day 14) was 38.8 ± 2.2%, the “Karyocyte Count in Blood” value ([6]; scheme 2, 2 Times, Day 18) was 1.67 ± 0.1 × 10^3 and the “Lymphocyte in Blood (Absolute)” value ([6]; scheme 2, 2 Times, Day 18) was 703. For the same substance, the “Lymphocyte in Blood, %” value ([6]; scheme 2, 2 Times, Day 18) was 42.1 ± 1.4%, the “Karyocyte Count in Blood” value ([6]; scheme 2, 2 Times, Day 21) was 2.70 ± 0.2 × 10^3 and the “Lymphocyte in Blood (Absolute)” value ([6]; scheme 2, 2 Times, Day 21) was 1220. For the same substance, the “Lymphocyte in Blood, %” value ([6]; scheme 2, 2 Times, Day 21) was 45.2 ± 2.3%, the “Karyocyte Count in Blood” value ([6]; scheme 2, 3 Times, Day 7) was 2.22 ± 0.3 × 10^3 and the “Lymphocyte in Blood (Absolute)” value ([6]; scheme 2, 3 Times, Day 7) was 968. The “Lymphocyte in Blood, %” value ([6]; scheme 2, 3 Times, Day 7) was 43.6 ± 2.1%, the “Karyocyte Count in Blood” value ([6]; scheme 2, 3 Times, Day 11) was 1.94 ± 0.2 × 10^3 and the “Lymphocyte in Blood (Absolute)” value ([6]; scheme 2, 3 Times, Day 11) was 892. The “Lymphocyte in Blood, %” value ([6]; scheme 2, 3 Times, Day 11) was 46.3 ± 5.4%, the “Karyocyte Count in Blood” value ([6]; scheme 2, 3 Times, Day 14) was 1.50 ± 0.2 × 10^3 and the “Lymphocyte in Blood (Absolute)” value ([6]; scheme 2, 3 Times, Day 14) was 744. For the same substance, the “Lymphocyte in Blood, %” value ([6]; scheme 2, 3 Times, Day 14) was 47.7 ± 6.1%, the “Karyocyte Count in Blood” value ([6]; scheme 2, 3 Times, Day 18) was 2.07 ± 0.2 × 10^3 and the “Lymphocyte in Blood (Absolute)” value ([6]; scheme 2, 3 Times, Day 18) was 7353. The “Lymphocyte in Blood, %” value ([6]; scheme 2, 3 Times, Day 18) was 35.5 ± 1.4%, the “Karyocyte Count in Blood” value ([6]; scheme 2, 3 Times, Day 21) was 2.45 ± 0.4 × 10^3 and the “Lymphocyte in Blood (Absolute)” value ([6]; scheme 2, 3 Times, Day 21) was 1289. The “Lymphocyte in Blood, %” value ([6]; scheme 2, 3 Times, Day 21) was 52.5 ± 3.2%, the “Karyocyte Count in Blood” value ([6]; scheme 2, 4 Times, Day 7) was 2.71 ± 0.4 × 10^3 and the “Lymphocyte in Blood (Absolute)” value ([6]; scheme 2, 4 Times, Day 7) was 1231. The “Lymphocyte in Blood, %” value ([6]; scheme 2, 4 Times, Day 7) was 45.6 ± 2.5%, the “Karyocyte Count in Blood” value ([6]; scheme 2, 4 Times, Day 11) was 3.03 ± 0.5 × 10^3 and the “Lymphocyte in Blood (Absolute)” value ([6]; scheme 2, 4 Times, Day 11) was 1406. The “Lymphocyte in Blood, %” value ([6]; scheme 2, 4 Times, Day 11) was 42.6 ± 3.6%, the “Karyocyte Count in Blood” value ([6]; scheme 2, 4 Times, Day 14) was 1.17 ± 0.1 × 10^3 and the “Lymphocyte in Blood (Absolute)” value ([6]; scheme 2, 4 Times, Day 14) was 515. For the same substance, the “Lymphocyte in Blood, %” value ([6]; scheme 2, 4 Times, Day 14) was 44.0 ± 3.1%, the “Karyocyte Count in Blood” value ([6]; scheme 2, 4 Times, Day 18) was 2.48 ± 0.1 × 10^3 and the “Lymphocyte in Blood (Absolute)” value ([6]; scheme 2, 4 Times, Day 18) was 1116. The “Lymphocyte in Blood, %” value ([6]; scheme 2, 4 Times, Day 18) was 45.1 ± 1.8%, the “Karyocyte Count in Blood” value ([6]; scheme 2, 4 Times, Day 21) was 1.66 ± 0.2 × 10^3 and the “Lymphocyte in Blood (Absolute)” value ([6]; scheme 2, 4 Times, Day 21) was 789. For the same substance, the “Lymphocyte in Blood, %” value ([6]; scheme 2, 4 Times, Day 21) was 47.5 ± 5.3%.
